Patent publication US7029652B2, “Method of treating tumors” (The Regents of the University of California, priority 1998, dated 2006)

Assays:
HBT 3477 cells [1] = assay: Attachment of HBT 3477 cells to vitronectin; type: cell-based, human; conditions: read-out: IC50 for blocking attachment of HBT 3477 cells to vitronectin
Excerpt: Cell Lines. HBT 3477, a human breast adenocarcinoma cell line, was obtained from Bristol-Myers Squibb Pharmaceutical Research Institute (Seattle, Wash.). Greater than 70% of HBT 3477 cells stain intensely with L6. In HBT 3477 cells, bcl-2 is expressed and p53 is mutant, with a nonsense mutation in exon 10, resulting in a deletion in the region of the p53 protein that functions in tetramerization and in detection of double-stranded DNA breaks. HBT 3477 cells express functional αvβ5 integrin, but not αvβ3 integrin, as attachment to vitronectin is blocked by αvβ5-specific P1F6 antibody, but is not blocked by αvβ3-specific LM609 antibody.

[2] = Toxicity: mortality, weights and blood counts; type: in vivo
Experimental: Toxicity. Weights and blood counts were measured 2–3 times per week for 12 weeks post-injection or until death. Blood samples were collected from tail veins using 2 μL microcapillary pipets. Samples from mice within a dose group were pooled, and diluted 1:200 in phosphate-buffered saline (PBS, 0.9% saline/10 mM sodium phosphate, pH 7.6) for red blood cell (RBC) counts; 1:100 in 1% (w/v) ammonium oxalate for platelet counts; or 1:20 in 3% (w/v) acetic acid for white blood cell (WBC) counts.
Statistical Analysis. Statistical analysis of mortality data for RIT and CMRIT method treated mice was performed using a Fisher Exact test with StatExact software to determine if mortality was different. Statistical analysis of therapy data was done using a Cochran Mantel Haenszel test to evaluate effect of RIT dose on outcome for RIT and CMRIT method groups. Comparison of cure rates to all other responses for RIT vs. CMRIT method groups was done by Fisher Exact test, with the best tumor response used for 2-tumored animals for statistical purposes. Statistical differences between immunopathology groups at the different time points were assessed by analysis of variance (ANOVA) (Fisher PLSD) using STATview software as appropriate, with p<0.05 considered significant.

HBT 3477 tumors = assay: TUNEL analysis of total cell apoptosis in tumors; type: in vivo, mice
Experimental: (§1) Cellular immunopathology groups. Unless otherwise noted, groups consisted of 2 mice, each bearing 2 tumors, for a total of 4 tumors analyzed at each time point. […] The tumors were removed, cut in half, frozen in optimal cutting temperature (O.C.T). medium, and stored at about −70° C. until sectioning (10-μm sections). All time points were evaluated for apoptosis by terminal deoxynucleotidyl transferase-mediated dUTP nick end labeling (TUNEL, Cavrieli, et al. J. Cell Bio., 119: 493–501 (1992)) analysis, and selected time points (untreated, 1,5 and 6 days) were assessed for differences in proliferation rate (Ki67) and microvessel density (CD31).
TUNEL analysis of total and endothelial apoptosis. Tumors were cut into 10-μm sections onto Fisher superplus slides (Fisher, Pittsburgh, Pa.), air-dried for 1 hour and frozen at about −70° C. until TUNEL analysis with ApopTag Red kit (rhodamine used as label, Intergen, Purchase, N.Y.) following the manufacturer's instructions subsequent to fixation for about 10 minutes in 1% paraformadehyde. After TUNEL, the slides were rinsed, and incubated overnight at 4° C. with a rat anti-mouse MAb against CD31 at 1:100 dilution (Pharmingen, San Diego, Calif.) to identify endothelial cells. Slides were rinsed and incubated for 1 hour with an anti-rat antibody linked to FITC (1:50 dilution) (Pharmingen). Slides were rinsed, dipped briefly in 4,6-diamidino-2-phenylindole (DAPI, 0.2 μg/ml) for background nuclear stain, rinsed again and mounted, followed by storage in the dark at about 4° C. until quantitation.
Quantitation of total apoptosis and endothelial apoptosis. An Olympus microscope equipped with a Chroma Pinkle Filter Set (Chroma, Brattleboro, Vt.) with excitation filters for UV, FITC and rhodamine and dual/triple bandpass filters to allow simultaneous viewing of multiple wavelengths, was used to quantify 6 randomly chosen X600 fields (150,000 μm^2/field) in non-necrotic regions of each section. Fields were chosen to cover the entire viewing area using DAPI label, which typically included about 300–350 cells. Total apoptosis was determined by the average number of positive nuclei per field for each tumor while endothelial apoptosis was determined using the same fields with a dual bandpass filter to count cells labeled by both FITC (CD31) and rhodamine (TUNEL). Fields were chosen from apparently non-necrotic areas of tumor sections, as HBT 3477 xenografts typically grow quickly in nude mice, doubling their volumes in 6 days, resulting in central necrosis of untreated tumors. As TUNEL may label necrotic cells, though less intensely, this strategy was chosen over a completely random process.

[3] = test system: endothelial cells in HBT 3477 tumors; assay: TUNEL/CD31 analysis of endothelial apoptosis in tumors; type: in vivo, mice
Experimental: as §1
TUNEL analysis of total and endothelial apoptosis. […] Slides were rinsed, dipped briefly in 4,6-diamidino-2-phenylindole (DAPI, 0.2 μg/ml) for background nuclear stain, rinsed again and mounted, followed by storage in the dark at about 4° C. until quantitation.
Quantitation of total apoptosis and endothelial apoptosis. An Olympus microscope equipped with a Chroma Pinkle Filter Set (Chroma, Brattleboro, Vt.) with excitation filters for UV, FITC and rhodamine and dual/triple bandpass filters to allow simultaneous viewing of multiple wavelengths, was used to quantify 6 randomly chosen X600 fields (150,000 μm^2/field) in non-necrotic regions of each section. […]

[4] = test system: αvβ3-expressing M21 melanoma cells; conditions: stated in words; cited from earlier work
HBT 3477 cells [5] = assay: HBT 3477 cell binding radioimmunoreactive assay (RIA); set-up: species or system human
Excerpt: ^90Y-DOTA-peptide-ChL6. ChL6 was conjugated to 1,4,7,10-tetraazacyclododecane-N,N′,N″,N′″-tetraacetic acid (DOTA) and radiolabeled with ^90Y as described by DeNardo, et al. J. Nucl. Med., 36:829–836, with greater than or equal to 80 percent efficiency to prepare ^90Y-DOTA-peptide-ChL6. ^90Y-DOTA-peptide-ChL6 was examined for structural and functional integrity by molecular sieving high performance liquid chromatography (HPLC), cellulose acetate electrophoresis (CAE), and HBT 3477 cell binding radioimmunoreactive assay (RIA). […] Immunoreactive binding to live cells indicated greater than 92% reactivity; administration as a single dose of 200, 230 or 260 […] ^90Y-DOTA-peptide-ChL6.

[6] = comparison as stated in the sentence

| Compound | IC50 (HBT 3477 cells [1]) [µM] | mortality or toxicity, in words [2, 6] | total cell apoptosis, percent of cells (HBT 3477 tumors; 1 day after treatment) [%] | TUNEL-positive tumor and endothelial cells (total cells) (HBT 3477 tumors; 1 day after treatment, X600, about 350 cells/field) [cells/field] | endothelial apoptosis ([3]; 1 day after treatment) [cells/field] | endothelial apoptosis ([3]; 5 days after treatment) [cells/field] | IC50 for αvβ3-expressing M21 melanoma cells [4] | weight, RBC, WBC and platelet counts, in words [2, 6] | mortality ([2]; high dose RIT (260 μCi)) [%] | mortality ([2]; low dose RIT (200–230 μCi)) [%] | TUNEL-positive tumor and endothelial cells (total cells) (HBT 3477 tumors; 6 days) [cells/field] | total cell apoptosis, percent of cells (HBT 3477 tumors; 6 days) [%] | Immunoreactive binding to live cells, reactivity (HBT 3477 cells [5]) |
| --- | --- | --- | --- | --- | --- | --- | --- | --- | --- | --- | --- | --- | --- |
| CC(C)[C@H]1C(=O)N[C@@H](CCCN=C(N)N)C(=O)NCC(=O)N[C@@H](CC(=O)O)C(=O)N[C@H](Cc2ccccc2)C(=O)N1C [cyclo-(Arg-Gly-Asp-D-Phe-[N-Me]-Val)] | ~5 | No increased mortality or toxicity | 4.6 | 16.2±1.89 | 2.5±0.5 | 2.4±0.7 | low micromolar range | – | – | – | – | – | – |
| ^90Y-1,4,7,10-tetraazacyclododecane-N,N′,N″,N′″-tetraacetic acid-peptide-ChL6 [RIT] | – | – | – | – | – | – | – | decreased weight, RBC, WBC and platelet counts | 33 | 29 | 21.4±2.9 | 6.1 | greater than 92% |
